In patent US20170306040A1, “COMBINATION THERAPY OF AN AFUCOSYLATED CD20 ANTIBODY WITH A CD22 ANTIBODY-DRUG CONJUGATE” (Hoffmann-La Roche Inc., priority 2013, published 2017):

Tested on: WSU-DLCL2 lymphoma cells
Method: The tumor cell line was routinely cultured in DMEM containing 10% FCS (Gibco) at 37° C. in a water-saturated atmosphere at 5% CO2. Passage 15 was used for transplantation in human CD16 transgenic Scid mice. […] Expression of CD20 and CD22 was confirmed on WSU-DLCL2 lymphoma cells by FACS. […] Mean fluorescence was measured using the plate protocol in the FACS CantoII (Software FACS Diva).
60 SCID FcgR3 transgenic female mice (SCID CD16 tg mice), age 7-8 weeks at start of experiment (purchased from Charles River), were maintained under specific-pathogen-free condition with daily cycles of 12 h light/12 h darkness according to committed guidelines (GV-Solas; Felasa; TierschG). […] After arrival animals were maintained for one week to get accustomed to new environment and for observation. Continuous health monitoring was carried out on regular basis.
Animals were randomized for CD16 Expression on murine NK cells with an average of 70%. Treatment started 12 days after cell transplantation. […] The CD22-ADC was given once on study day 12 at the dose of 4 mg/kg. The antibody dilutions were prepared freshly from stock before use. The study was terminated on day 273.
Animals were controlled daily for clinical symptoms and detection of adverse effects. Termination criteria for animals were visible sickness: scruffy fur, arched back, heavy breathing, impaired locomotion, HLP (hind leg paralysis). Mice were sacrificed according to the termination criteria.
Survival data were statistically analyzed by pairwise Wilcoxon and pairwise log-rank test.
The diffuse large B-cell lymphoma cell line WSU-DLCL2 was intravenously inoculated (5×10^6 cells) into the tail vein of the human CD16 transgenic Scid mice. Mice were randomized for equal CD16 expression of NK cells and treatment started at day 12 after cell transplantation. […] Animals in the control group received PBS. All animals were controlled daily for clinical symptoms and detection of adverse effects and sacrificed according to the set termination criteria. Study termination was on study day 273. Survival data were represented with the survival curve (FIG. 1) and were statistically analyzed by Pairwise Wilcoxon and Pairwise Log-Rank test (FIG. 2).

Substance: GA101: afucosylated glycoengineered humanized B-Ly1 type II anti-CD20 IgG1 antibody
- Survival difference between GA101 and rituximab single agents (Pairwise Wilcoxon test): no significant difference
- Survival difference from the vehicle group (Pairwise Wilcoxon test): significantly different from the vehicle group except of GA101
- Median Survival (WSU-DLCL2 i.v. in SCID CD16 tg mice, GA101/rituximab 30 mg/kg i.v. days 12, 19, 26, CD22-ADC 4 mg/kg i.v. once day 12, study end day 273): 86.5 days
- Animals tumor free at the end of the study (day 273, 10 animals per group): 1 animals
- Overall Survival at end of experiment (day 273) (surviving animals/10 per group, same dosing as the median survival study): 1/10
